In brackets after ≈: the same amount, converted by molar mass. Activity calls are given as the source filed them. The rule behind the calls is not given here.
Columns and labels:
[1] = tested on: Staphylococcus aureus; assay: Antimicrobial activity against Staphylococcus aureus assessed as inhibition of growth incubated for 18 hrs by CLSI guidelines based assay; format: functional
[2] = tested on: Enterococcus faecalis; assay: Antimicrobial activity against Enterococcus faecalis assessed as inhibition of growth incubated for 18 hrs by CLSI guidelines based assay; format: functional
[3] = tested on: Escherichia coli; assay: Antimicrobial activity against Escherichia coli assessed as inhibition of growth incubated for 18 hrs by CLSI guidelines based assay; format: functional
[4] = tested on: Stenotrophomonas maltophilia; assay: Antimicrobial activity against Stenotrophomonas maltophilia assessed as inhibition of growth incubated for 18 hrs by CLSI guidelines based assay; format: functional
[5] = Hemolytic activity in sheep red blood cells measured after 1 hr incubation; format: toxicity, cell-based, Ovis aries, Erythrocyte
[6] = Selectivity index, ratio of HC50 for sheep red blood cells to MIC for Staphylococcus aureus; format: toxicity, cell-based, RBC; details: read-out: Selectivity Index
[7] = Cytotoxicity against human Gastric mucosal cells measured after 24 hrs by CCK-8 assay; format: toxicity, cell-based, Gastric mucosal cell
[8] = tested on: Staphylococcus aureus; assay: Antibacterial activity against NDM-1 gene-resistant Staphylococcus aureus assessed as inhibition of bacterial growth incubated for 18 hrs by CLSI guidelines based assay; format: functional
[9] = tested on: Staphylococcus aureus; assay: Antibacterial activity against methicillin-resistant Staphylococcus aureus assessed as inhibition of bacterial growth measured immediately after addition in presence of plasma; format: functional, organism-based
[10] = tested on: Staphylococcus aureus; assay: Bactericidal activity against early exponential phase Staphylococcus aureus assessed as bacterial killing at 6 ug/ml incubated for 4 hrs by time-kill assay; format: functional, organism-based; details: dose 6.0 µg/ml
[11] = tested on: Staphylococcus aureus; assay: Bactericidal activity against early exponential phase Staphylococcus aureus assessed as bacterial killing at 6 ug/ml incubated for 12 hrs by time-kill assay; format: functional, organism-based; details: dose 6.0 µg/ml
[12] = tested on: Staphylococcus aureus; assay: Anti-biofilim activity against Staphylococcus aureus biofilm assessed bio-film thickness at 32 ug/ml measured after 24 hrs incubation by SYTO 9 staining based […] laser scanning microscopy (CLSM) (reference value: 29.5 microm); format: functional; details: dose 32 µg/ml
[13] = tested on: Staphylococcus aureus; assay: Anti-bacterial activity against 100 times rifampicin induced persistent cells of Staphylococcus aureus assessed as reduction in persistent cells at 32 times of MIC; format: functional
[14] = tested on: Staphylococcus aureus; assay: In vivo antibacterial activity against methicillin-resistant Staphylococcus aureus subcutaneously infected in SPF female Kunming mouse model assessed as bacteria count in dissected mouse at 10 mg/kg/day injected into blister after 6 hrs of infection measured after 6 consecutive treatments; format: functional, organism-based
[15] = tested on: Staphylococcus aureus; assay: Antibacterial activity against Staphylococcus aureus; format: functional
[16] = Hemolytic activity in red blood cells (unknown origin); format: toxicity, cell-based, Erythrocyte
[17] = Selectivity index, ratio of HC50 for RBC (unknown origin) to MIC for Staphylococcus aureus; format: toxicity, cell-based; details: red blood cells; read-out: Selectivity Index
[18] = tested on: Staphylococcus aureus; assay: Antibacterial activity against methicillin-resistant Staphylococcus aureus; format: functional
[19] = Hemolytic activity in human erythrocytes; format: toxicity, cell-based, Erythrocyte
[20] = Selectivity index, ratio of HC50 for human erythrocytes to MIC for methicillin-resistant Staphylococcus aureus; format: toxicity, cell-based, RBC; details: read-out: Selectivity Index
[21] = tested on: Staphylococcus aureus; assay: Resistance development in Staphylococcus aureus assessed as increase in MIC measured after 20 passages of continues culture; format: functional

C[N+](C)(CCCCCOc1cc(OCCCCC[N+](C)(C)CCCOc2ccccc2)cc(OCCCCC[N+](C)(C)CCCOc2ccccc2)c1)CCCOc1ccccc1.[Br-].[Br-].[Br-]
MIC [1]: 1 µg/mL | MIC [2]: 1 µg/mL | MIC [3]: 2 µg/mL | MIC [4]: 2 µg/mL | HC50 at 1 h [5]: > 1280 µg/mL | selectivity ratio [6]: > 1280 | CC50 at 24 h [7]: < 30 µg/mL

CCCCCC[N+](C)(C)CCCCCOc1cc(OCCCCC[N+](C)(C)CCCCCC)cc(OCCCCC[N+](C)(C)CCCCCC)c1.[Br-].[Br-].[Br-]
MIC [1]: 1 µg/mL | MIC [2]: 2 µg/mL | MIC [3]: 8 µg/mL | MIC [4]: 4 µg/mL | HC50 at 1 h [5]: > 1280 µg/mL | selectivity ratio [6]: > 1280 | CC50 at 24 h [7]: < 30 µg/mL

CC[C@H]1OC(=O)[C@H](C)[C@@H](O[C@H]2C[C@@](C)(OC)[C@@H](O)[C@H](C)O2)[C@H](C)[C@@H](O[C@@H]2O[C@H](C)C[C@H](N(C)C)[C@H]2O)[C@](C)(O)C[C@@H](C)C(=O)[C@H](C)[C@@H](O)[C@]1(C)O [ERYTHROMYCIN]
MIC90 [8]: > 32 µg/mL

C[N+](C)(CCCCCOc1cc(OCCCCC[N+](C)(C)CCCCOc2ccccc2)cc(OCCCCC[N+](C)(C)CCCCOc2ccccc2)c1)CCCCOc1ccccc1.[Br-].[Br-].[Br-]
MIC [1]: 1 µg/mL | MIC [2]: 2 µg/mL | MIC [3]: 2 µg/mL | MIC [4]: 4 µg/mL | HC50 at 1 h [5]: > 1280 µg/mL | selectivity ratio [6]: > 1280 | CC50 at 24 h [7]: < 30 µg/mL

CN[C@H](CC(C)C)C(=O)N[C@H]1C(=O)N[C@@H](CC(N)=O)C(=O)N[C@H]2C(=O)N[C@H]3C(=O)N[C@H](C(=O)N[C@H](C(=O)O)c4cc(O)cc(O)c4-c4cc3ccc4O)[C@H](O)c3ccc(c(Cl)c3)Oc3cc2cc(c3O[C@@H]2O[C@H](CO)[C@@H](O)[C@H](O)[C@H]2O[C@H]2C[C@](C)(N)[C@H](O)[C@H](C)O2)Oc2ccc(cc2Cl)[C@H]1O [VANCOMYCIN]
MIC [3]: 2 µg/mL (≈ 1.38 µM) | HC50 at 1 h [5]: 805 µg/mL | Activity [9]: Active | Activity [10]: Active | Activity [11]: Active | Activity [12]: 22.1 um | Activity [13]: 3.2 log10CFU/ml | Activity [14]: Active

C=C[C@]1(C)C[C@@H](OC(=O)CSC(C)(C)CNC(=O)[C@H](N)C(C)C)[C@]2(C)[C@H](C)CC[C@]3(CCC(=O)[C@H]32)[C@@H](C)[C@@H]1O [VALNEMULIN]
CC50 at 24 h [7]: 45.7 µg/mL (≈ 80.9 µM)

CCCCCCCNC(=O)C[N+](C)(C)CCCCCCCCCCCC[N+](C)(C)CC(=O)NCCCCCCC.[Br-].[Br-]
MIC [15]: 0.5 µg/mL | HC50 [16]: 1220 µg/mL | selectivity ratio [17]: 2440 | MIC [3]: 0.062 µg/mL | CC50 at 24 h [7]: 38.1 µg/mL

CNC(C)[C@@H]1CC[C@@H](N)[C@@H](O[C@H]2[C@H](O)[C@@H](O[C@H]3OC[C@](C)(O)[C@H](NC)[C@H]3O)[C@H](N)C[C@@H]2N)O1.CN[C@@H]1[C@@H](O)[C@@H](O[C@@H]2[C@@H](O)[C@H](O[C@H]3O[C@H](C(C)N)CC[C@H]3N)[C@@H](N)C[C@H]2N)OC[C@]1(C)O.CN[C@@H]1[C@@H](O)[C@@H](O[C@@H]2[C@@H](O)[C@H](O[C@H]3O[C@H](CN)CC[C@H]3N)[C@@H](N)C[C@H]2N)OC[C@]1(C)O (some centres not stated)
MIC90 [8]: > 32 µg/mL

CS(=O)(=O)c1ccc([C@@H](O)[C@@H](CF)NC(=O)C(Cl)Cl)cc1 [FLORFENICOL]
CC50 at 24 h [7]: 121 µg/mL (≈ 339 µM)

CCCCCCN(CCCOc1ccccc1-c1ccccc1OCCCN(CCCCCC)C(=O)[C@@H](N)CCCCN)C(=O)[C@@H](N)CCCCN.Cl.Cl.Cl.Cl
MIC [18]: 0.5 µg/mL | HC50 [19]: > 1000 µg/mL | selectivity ratio [20]: > 2000

CCn1cc(C(=O)O)c(=O)c2cc(F)c(N3CCNCC3)cc21 [NORFLOXACIN]
MIC [21]: 4 µg/mL
